Assay results from patent US8658616B2, “Nucleoside aryl phosphoramidates and their use as anti-viral agents for the treatment of hepatitis C virus” (University College Cardiff Consultants Limited, priority 2006, dated 2014).
Values joined by “and” are separate entries in the source; they are usually repeats but may differ in a detail not shown here. Equal values may be shown once. Read-outs that look alike come from different tables or passages of the source.

Key:
[1] = test system: subgenomic HCV replicons I389luc-ubi-neo/NS3-3′/5.1 (Huh 5-2); experiment: Anti-HCV assay in Huh 5-2 cells (luciferase replicon); assay type: cell-based, hepatitis C virus (HCV); details: for potency with respect to HCV compared with compound CHC5 (free nucleoside): comparison of Table I data
Description: (§1) Anti-HCV assay in Huh 7 cells. Huh 7 cells containing subgenomic HCV replicons I389luc-ubi-neo/NS3-3′/5.1 (Huh 5-2) or I377/NS3-3′/wt (Huh 9-13) have been described (Lohmann V, Korner F, Koch J, Herian U, Theilmann L, Bartenschlager R. (1999) Replication of subgenomic hepatitis C virus RNAs in a hepatoma cell line. Science 285:110-113. Lohmann V, Korner F, Dobierzewska A, Bartenschlager R. (2001) Mutations in hepatitis C virus RNAs conferring cell culture adaptation. J Virol. 75:1437-1449.). Cells were grown in Dulbecco's modified Eagle's Medium (DMEM; Gibco, Merelbeke, Belgium) supplemented with 10% heat-inactivated fetal bovine serum (FCS) (Integro, Zaandam, The Netherlands), 1× non-essential amino acids (Gibco), 100 IU/ml penicillin (Gibco), 100 μg/ml streptomycin (Gibco) and 250 μg/ml Geneticin (G418, Gibco) for Huh 5-2 cells, 1000 μg/ml G418 for Huh 9-13 cells
Anti-HCV Assay in Huh 5-2 Cells.
Huh 5-2 cells were seeded at a density of 5×10^3 per well in a tissue culture treated white 96-well view plate (Packard, Canberra, Canada) in complete DMEM supplemented with 250 μg/ml G418. Following incubation for 24 h at 37° C. (5% CO2) medium was removed and serial dilutions in complete DMEM (without G418) of the test compounds were added in a total volume of 100 μl. After 4 days of incubation at 37° C., cell culture medium was removed and luciferase activity was determined using the Steady-Glo luciferase assay system (Promega, Leiden, The Netherlands); the luciferase signal was measured using a Luminoskan Ascent (Thermo, Vantaa, Finland). The 50% effective concentration (EC50) was defined as the concentration of compound that reduced the luciferase signal by 50%.

[2] = CC50 (cytotoxicity, Table I); assay type: cell-based; details: human, Huh 7 cells; method and cell line not described
Huh 7 cells = experiment: CC50 (cytotoxicity, Table I); assay type: cell-based; details: method and cell line not described
[3] = test system: subgenomic HCV replicons I377/NS3-3′/wt (Huh 9-13); experiment: Anti-HCV assay in Huh 9-13 cells (RT-qPCR of replicon RNA); assay type: cell-based, hepatitis C virus (HCV); details: read-out: HCV Huh 9-13 EC50
Description: as §1
Anti-HCV Assay in Huh 9-13 Cells.
Huh 9-13 cells were seeded at a density of 5×10^3 cells per well in 96-well cell culture plates in complete DMEM supplemented with 1000 μg/ml G418. Following incubation for 24 h at 37° C. cell culture medium was removed and serial dilutions of the test compounds in complete DMEM without G418 were added in a total volume of 100 μl. After 4 days of incubation at 37° C., cell culture fluid was removed and monolayers were washed once with phosphate-buffered saline. Cells were lysed in 350 μl RLT buffer (Qiagen, Venlo, The Netherlands) according to the Manufacturer's instruction. Lysates were stored at −80° C. until further use. […]

[4] = Hepatitis C virus, Huh-5-2, 96 h, read-out: HCV Huh 5-2 EC50, Huh 5-2 cells, 4 days incubation, concentration that reduced the luciferase signal by 50%
[5] = Huh 5-2 cells, 4 days incubation, concentration that reduced the luciferase signal by 50%, read-out: HCV Huh 5-2 EC50

Row | Compound | EC50 [1, 4] [nM] | CC50 [2] [µM] | also measured
1 | C[C@H](NP(=O)(OC[C@H]1O[C@@H](n2cnc3c(N)ncnc32)C(C)(O)C1O)Oc1cccc2ccccc12)C(=O)OCc1ccccc1 (stereo partly drawn) [CHC3, β-2′-methyl-adenosine 5′-O-[α-naphthyl(benzoxy-L-alaninyl)]phosphate] | 160 | 44 | 
2 | CCOC(=O)[C@H](C)NP(=O)(OC[C@H]1O[C@@H](n2cnc3c(=O)[nH]c(N)nc32)C(C)(O)C1O)Oc1cccc2ccccc12 (stereo partly drawn) [CHC7, β-2′-methyl-guanosine 5′-O-[α-naphthyl(ethoxy-L-alaninyl)]phosphate] | 150 | > 50 | potency with respect to HCV compared with compound CHC5 (free nucleoside) [1]: greater potency; EC50 ([1]; read-out: HCV Huh 5-2 EC50, Huh 5-2 cells, 4 days incubation, concentration that reduced the luciferase signal by 50%): 200 nM and 160 nM
3 | CC1(O)C(O)[C@@H](CO)O[C@H]1n1cnc2c(N)ncnc21 (stereo partly drawn) [CHC1, β-2′-methyl-adenosine, reference compound] |  | 29 | EC50 ([1]; Hepatitis C virus, Huh-5-2, 96 h, Huh 5-2 cells, 4 days incubation, concentration that reduced the luciferase signal by 50%, read-out: HCV Huh 5-2 EC50): 140 nM; EC50 [1, 5]: 80 nM and 130 nM; CC50 (Huh 7 cells): > 33 µM
4 | CCOC(=O)[C@H](C)NP(=O)(OC[C@H]1O[C@@H](n2cnc3c(N)ncnc32)C(C)(O)C1O)Oc1cccc2ccccc12 (stereo partly drawn) [CHC2, β-2′-methyl-adenosine 5′-O-[α-naphthyl(ethoxy-L-alaninyl)]phosphate] | 120 | > 50 | 
5 | C[C@H](NP(=O)(OC[C@H]1O[C@@H](n2cnc3c(N)ncnc32)C(C)(O)C1O)Oc1cccc2ccccc12)C(=O)OC(C)(C)C (stereo partly drawn) [CHC4, β-2′-methyl-adenosine 5′-O-[α-naphthyl(tert-butoxy-L-alaninyl)]phosphate] | 2360 | > 50 | 
6 | C[C@H](NP(=O)(OC[C@H]1O[C@@H](n2cnc3c(=O)[nH]c(N)nc32)C(C)(O)C1O)Oc1cccc2ccccc12)C(=O)OCc1ccccc1 (stereo partly drawn) [CHC6, β-2′-methyl-guanosine 5′-O-[α-naphthyl(benzoxy-L-alaninyl)]phosphate] |  | > 50 | potency with respect to HCV compared with compound CHC5 (free nucleoside) [1]: greater potency; EC50 ([3]; Hepatitis C virus, 96 h): 60 nM
7 | C[C@H](NP(=O)(OC[C@H]1O[C@@H](n2cnc3c(=O)[nH]c(N)nc32)C(C)(O)C1O)Oc1cccc2ccccc12)C(=O)OC(C)(C)C (stereo partly drawn) [CHC8, β-2′-methyl-guanosine 5′-O-[α-naphthyl(tert-butoxy-L-alaninyl)]phosphate] | > 50000 | > 50 | 
8 | C[C@@]1(O)[C@H](O)[C@@H](CO)O[C@H]1n1cnc2c(=O)[nH]c(N)nc21 [CHC5, β-2′-methyl-guanosine, reference compound] |  |  | EC50 [1, 5]: 3000 nM and 5000 nM; EC50 ([3]; Huh 9-13 cells, 4 days incubation, concentration that reduced replicon RNA content by 50% (RT-qPCR)): 1500 nM; CC50 (Huh 7 cells): > 50 µM
9 | C[C@H](NP(=O)(OC[C@H]1O[C@@H](n2cnc3c(=O)[nH]c(N)nc32)C(C)(O)C1O)Oc1ccccc1)C(=O)OCc1ccccc1 (stereo partly drawn) [CHC9, β-2′-methyl-guanosine 5′-O-[phenyl(benzoxy-L-alaninyl)]phosphate] | 36000 | > 50 | EC50 ([3]; Hepatitis C virus, 96 h): 4100 nM
